# Measured values reported in patent US9023864B2, “Indole derivatives as CRTH2 receptor antagonists” (Merck Sharp & Dohme Corp., priority 2009, dated 2015).
# Target: T1, hCRTH2 (Homo sapiens, UniProt Q9Y5Y4)
# T1 construct: expressed in transfected cells; host or cells: HEK cell line expressing hCRTH2 (HEK-hCRTH2); membranes
# T1 sequence (Q9Y5Y4 1-395): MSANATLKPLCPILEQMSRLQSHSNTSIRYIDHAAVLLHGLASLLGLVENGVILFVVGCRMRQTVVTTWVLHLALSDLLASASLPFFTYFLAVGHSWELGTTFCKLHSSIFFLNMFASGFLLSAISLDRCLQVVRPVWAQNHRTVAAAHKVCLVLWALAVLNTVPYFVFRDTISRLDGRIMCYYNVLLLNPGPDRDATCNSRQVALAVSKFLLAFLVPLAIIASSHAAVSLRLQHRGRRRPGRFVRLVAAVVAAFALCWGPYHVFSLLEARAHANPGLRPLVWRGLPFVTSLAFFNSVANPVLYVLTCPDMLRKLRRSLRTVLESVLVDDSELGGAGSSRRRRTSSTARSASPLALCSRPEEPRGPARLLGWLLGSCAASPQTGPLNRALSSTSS
# Experiment: Radioligand binding assay ([3H]PGD2 competition, membranes from HEK-hCRTH2 cell line)
# Details: 0.7 nM [3H]PGD2, membrane protein from HEK-hCRTH2 cell line, 60 min at room temperature; values given as ranges
# Protocol: Radioligand Binding Assay.
# Radioligand binding assays were performed at room temperature in 10 mM HEPES/KOH pH 7.4, 1 mM EDTA containing 10 mM MnCl2 and 0.7 nM [^3H]PGD2 (NEN, 171 Ci mmol^−1), in a final volume of 0.2 ml. Competing ligands were diluted in dimethylsulfoxide (Me2SO) that was kept constant at 1% (v/v) of the final incubation volume. The reaction was initiated by the addition of 8-20 μg of membrane protein prepared from a HEK-hCRTH2 cell line. Total and non-specific binding were determined in the absence and the presence of 10 μM PGD2, respectively. Under these conditions, specific binding (total minus non-specific) of the radioligand to the receptor reached equilibrium within 50 min and was stable up to 180 min. The reaction was routinely conducted for 60 min at room temperature and terminated by rapid filtration through prewetted Unifilters GF/C (Packard), using a Tomtec MachIII semi-automated harvester (for HEK-hCRTH2). The filters were then washed with 4 ml of the same buffer and residual radioligand bound to the filter was determined by liquid scintillation counting following equilibration in 25 μl Ultima Gold F™ (Unifilter) (Packard). The Ki (in nM) values for representative compounds of the present invention are as follows: ≦5: Examples 3.1, 5.1, 6.1, 7.1, 8.1/8A, 9.1, 26, 27.1, 28.1, 29.1, 30, 31.1, 31.3, 32.1, 32.4, 33.1, 34.1, 36.1, 38.1, 39, 40, 41; >5 and ≦10: Examples, 4, 5.3, 29.2; >10 and ≦50: Examples 1, 10, 14, 21, 22, 25, 31.4, 32.3, 35, 36.2, 37; >50 and ≦100: Examples 2, 5.4, 6.2, 27.2, 28.2; >100: Examples 3.2, 5.2, 7.2, 8.2, 9.2, 11, 12, 13, 15, 16, 17, 18, 19, 20, 23, 24, 31.2, 32.2, 33.2, 34.2, 38.2.
row,Ki,Structure (SMILES)
1,≤ 0.005 µM,"O=C(O)Cc1c2n(c3c(F)cccc13)CC(n1nncc1Cc1ccc(F)c(F)c1)CC2 (single isomer, unassigned) [Example 33.1, {7-[5-(3,4-difluorobenzyl)-1H-1,2,3-triazol-1-yl]-4-fluoro-6,7,8,9-tetrahydropyrido[1,2-a]-indol-10-yl}acetic acid]"
2,0.01 to 0.05 µM,"Cc1nnn(C2CCc3c(CC(=O)O)c4cccc(F)c4n3C2)c1Cc1ccc(F)cc1 (single isomer, unassigned) [Example 36.2, {4-Fluoro-7-[5-(4-fluorobenzyl)-4-methyl-1H-1,2,3-triazol-1-yl]-6,7,8,9-tetrahydropyrido[1,2-a]indol-10-yl}acetic acid]"
3,> 0.1 µM,"O=C(O)Cc1c2n(c3c(F)cccc13)CC(n1nncc1Cc1ccc(Cl)cc1)CC2 (single isomer, unassigned) [Example 34.2, {7-[5-(4-chlorobenzyl)-1H-1,2,3-triazol-1-yl]-4-fluoro-6,7,8,9-tetrahydropyrido[1,2-a]indol-10-yl}acetic acid]"
4,≤ 0.005 µM,"CC(c1ccccc1)c1cnnn1C1CCc2c(CC(=O)O)c3ccccc3n2C1 (single isomer, unassigned) [Example 29.1]"
5,0.05 to 0.1 µM,"O=C(O)Cc1c2n(c3ccccc13)CC(n1nncc1Cc1ccc(F)cc1)CC2 (single isomer, unassigned) [Example 28.2]"
6,≤ 0.005 µM,"CC(O)(c1ccc(F)cc1)c1cnnn1C1CCc2c(CC(=O)O)c3cccc(F)c3n2C1 (single isomer, unassigned) [Example 31.1]"
7,≤ 0.005 µM,"CC(c1ccccc1)c1cnnn1C1CCc2c(CC(=O)O)c3cccc(F)c3n2C1 (single isomer, unassigned) [Example 32.4, {4-Fluoro-7-[5-(1-phenyl-ethyl)-[1,2,3]triazol-1-yl]-6,7,8,9-tetrahydropyrido[1,2-α]indol-10-yl}-acetic acid]"
8,0.005 to 0.01 µM,"CC(c1ccccc1)c1cnnn1[C@@H]1CCc2c(CC(=O)O)c3ccccc3n2C1 (single isomer, unassigned) [Example 29.2]"
9,≤ 0.005 µM,"O=C(O)Cc1c2n(c3c(F)cccc13)CC(n1nncc1Cc1ccc(Cl)cc1)CC2 (single isomer, unassigned) [Example 34.1, {7-[5-(4-chlorobenzyl)-1H-1,2,3-triazol-1-yl]-4-fluoro-6,7,8,9-tetrahydropyrido[1,2-a]indol-10-yl}acetic acid]"
10,> 0.1 µM,"CC1C(n2nncc2Cc2ccc(F)cc2)CCc2c(CC(=O)O)c3cccc(F)c3n21 (single isomer, unassigned) [Example 38.2, {4-Fluoro-7-[5-(4-fluorobenzyl)-1H-1,2,3-triazol-1-yl]-6-methyl-6,7,8,9-tetrahydropyrido[1,2-α]indol-10-yl}acetic acid]"

# Continued, compound first:
row,Structure (SMILES),Ki
1,"O=C(O)Cc1c2n(c3ccccc13)CC(n1nncc1C(O)(c1ccc(F)cc1)c1ccc(F)cc1)CC2 (single isomer, unassigned) [Example 27.2]",0.05 to 0.1 µM
2,"O=C(O)Cc1c2n(c3ccccc13)CC(n1nncc1COc1ccccc1)CC2 (stereo not drawn) [Example 21, [7-(5-Phenoxymethyl-[1,2,3]triazol-1-yl)-6,7,8,9-tetrahydropyrido[1,2-α]indol-10-yl]-acetic acid]",0.01 to 0.05 µM
3,"CN(C)c1ccc(-c2cn(C3CCc4c(CC(=O)O)c5ccccc5n4C3)nn2)cc1 (stereo not drawn) [Example 19, {7-[4-(4-Dimethylamino-phenyl)-[1,2,3]triazol-1-yl]-6,7,8,9-tetrahydropyrido[1,2-α]indol-10-yl}-acetic acid]",> 0.1 µM
4,"O=C(O)Cc1c2n(c3ccccc13)C[C@H](n1nncc1C(c1ccc(F)cc1)c1ccc(F)cc1)CC2 [Example 30, ((R)-7-{5-[Bis-(4-fluoro-phenyl)-methyl]-[1,2,3]triazol-1-yl}-6,7,8,9-tetrahydropyrido[1,2-α]indol-10-yl)-acetic acid]",≤ 0.005 µM
5,"CS(=O)(=O)NCCCCc1cn(C2CCc3c(CC(=O)O)c4ccccc4n3C2)nn1 (stereo not drawn) [Example 11, {7-[4-(4-Methanesulfonylamino-butyl)-[1,2,3]triazol-1-yl]-6,7,8,9-tetrahydropyrido[1,2-α]indol-10-yl}-acetic acid]",> 0.1 µM
6,"O=C(O)Cc1c2n(c3ccccc13)CC(n1nncc1COc1c(Cl)cccc1Cl)CC2 (stereo not drawn) [Example 4, (7-{5-[(2,6-dichlorophenoxy)methyl]-1H-1,2,3-triazol-1-yl}-6,7,8,9-tetrahydropyrido[1,2-α]indol-10-yl)acetic acid]",0.005 to 0.01 µM
7,"O=C(O)Cc1c2n(c3ccccc13)CC(n1nncc1C1CCCCC1)CC2 (stereo not drawn) [Example 24, [7-(5-Cyclohexyl-[1,2,3]triazol-1-yl)-6,7,8,9-tetrahydropyrido[1,2-α]indol-10-yl]-acetic acid]",> 0.1 µM
8,"O=C(O)Cc1c2n(c3ccccc13)CC(n1cc(-c3cccc4ccccc34)nn1)CC2 (stereo not drawn) [Example 18, [7-(4-Naphthalen-1-yl-[1,2,3]triazol-1-yl)-6,7,8,9-tetrahydropyrido[1,2-α]indol-10-yl]-acetic acid]",> 0.1 µM
9,"CC(O)(c1ccc(F)cc1)c1cnnn1C1CCc2c(CC(=O)O)c3ccccc3n2C1 (single isomer, unassigned) [Example 5.1, (7-{5-[1-(4-Fluoro-phenyl)-1-hydroxy-ethyl]-[1,2,3]triazol-1-yl}-6,7,8,9-tetrahydropyrido[1,2-α]indol-10-yl)-acetic acid]",≤ 0.005 µM
10,"O=C(O)Cc1c2n(c3ccccc13)CC(n1cc(COc3ccccc3)nn1)CC2 (stereo not drawn) [Example 14, [7-(4-Phenoxymethyl-[1,2,3]triazol-1-yl)-6,7,8,9-tetrahydropyrido[1,2-α]indol-10-yl]-acetic acid]",0.01 to 0.05 µM
11,"CC(O)(c1ccccc1)c1cn(C2CCc3c(CC(=O)O)c4ccccc4n3C2)nn1 (stereo not drawn) [Example 13, {7-[4-(1-Hydroxy-1-phenyl-ethyl)-[1,2,3]triazol-1-yl]-6,7,8,9-tetrahydropyrido[1,2-α]indol-10-yl}-acetic acid]",> 0.1 µM
12,"CC(C)(O)c1ccc(-c2cn(C3CCc4c(CC(=O)O)c5ccccc5n4C3)nn2)cc1 (stereo not drawn) [Example 16, (7-{4-[4-(1-Hydroxy-1-methyl-ethyl)-phenyl]-[1,2,3]triazol-1-yl}-6,7,8,9-tetrahydropyrido[1,2-α]indol-10-yl)-acetic acid]",> 0.1 µM
13,"COc1ccc(-c2cn(C3CCc4c(CC(=O)O)c5ccccc5n4C3)nn2)cc1 (stereo not drawn) [Example 2, {7-[4-(4-Methoxy-phenyl)-[1,2,3]triazol-1-yl]-6,7,8,9-tetrahydropyrido[1,2-α]indol-10-yl}-acetic acid]",0.05 to 0.1 µM
14,"O=C(O)Cc1c2n(c3ccccc13)CC(n1cc(-c3ccc(C(F)(F)F)cc3)nn1)CC2 (stereo not drawn) [Example 17, {7-[4-(4-Trifluoromethyl-phenyl)-[1,2,3]triazol-1-yl]-6,7,8,9-tetrahydropyrido[1,2-α]indol-10-yl}acetic acid]",> 0.1 µM
15,"O=C(O)Cc1c2n(c3ccccc13)CC(n1nncc1Cc1ccc(F)cc1F)CC2 (single isomer, unassigned) [Example 40, {7-[5-(2,4-difluorobenzyl)-1H-1,2,3-triazol-1-yl]-6,7,8,9-tetrahydropyrido[1,2-a]-indol-10-yl}acetic acid]",≤ 0.005 µM
16,"CS(=O)(=O)c1ccc(-c2cn(C3CCc4c(CC(=O)O)c5ccccc5n4C3)nn2)cc1 (stereo not drawn) [Example 15, {7-[4-(4-Methanesulfonyl-phenyl)-[1,2,3]triazol-1-yl]-6,7,8,9-tetrahydropyrido[1,2-α]indol-10-yl}-acetic acid]",> 0.1 µM
